Measurements from patent US12662489B2 (Sitryx Therapeutics Limited, priority 2023, dated 2026).

How the values were obtained:
[1] = target: T1, MTHFD2 recombinant human enzyme (Homo sapiens, UniProt P13995); assay: MTHFD2 inhibition assay (NAD(P)H-Glo luminescence); details: for MTHFD1/MTHFD2 IC50 ratio: selectivity of MTHFD2 inhibition over MTHFD1, band
T1 sequence (P13995 36-350): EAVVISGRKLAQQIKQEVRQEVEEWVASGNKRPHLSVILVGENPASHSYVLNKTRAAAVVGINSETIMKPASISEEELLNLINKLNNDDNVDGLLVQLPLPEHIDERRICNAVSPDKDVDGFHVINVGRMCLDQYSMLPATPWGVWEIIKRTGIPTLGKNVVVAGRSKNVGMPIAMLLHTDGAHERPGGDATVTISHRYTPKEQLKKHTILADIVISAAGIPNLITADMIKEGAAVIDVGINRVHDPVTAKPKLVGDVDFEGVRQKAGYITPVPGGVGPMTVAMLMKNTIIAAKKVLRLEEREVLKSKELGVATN

[2] = target: T2, MTHFD1 recombinant human enzyme (Homo sapiens, UniProt P11586); assay: MTHFD1 inhibition assay (NAD(P)H-Glo luminescence); details: MTHFD1 IC50, recombinant human enzyme 200 nM, NADP, band
T2 sequence (P11586 2-291 limits assumed): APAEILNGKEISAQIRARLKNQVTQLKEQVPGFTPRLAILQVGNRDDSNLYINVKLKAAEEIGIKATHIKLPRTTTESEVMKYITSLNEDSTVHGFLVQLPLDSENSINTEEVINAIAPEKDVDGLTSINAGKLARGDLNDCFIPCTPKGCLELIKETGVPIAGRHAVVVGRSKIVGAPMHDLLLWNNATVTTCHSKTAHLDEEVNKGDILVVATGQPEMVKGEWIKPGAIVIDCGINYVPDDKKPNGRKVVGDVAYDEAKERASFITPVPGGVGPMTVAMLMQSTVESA

SMILES | IC50 [1] [nM] | MTHFD1/MTHFD2 IC50 ratio [1] | IC50 [2] [nM]
COC[C@H]1CN(c2ccc3c4c(c(=O)oc3c2)CN(C(=O)c2cc(N(C)C)c(C(=O)NS(=O)(=O)N3C5CCC3CC5)cc2F)CC4)CCN1C [Example 191, (R)-N-((7-azabicyclo[2.2.1]heptan-7-yl)sulfonyl)-2-(dimethylamino)-5-fluoro-4-(8-(3-(methoxymethyl)-4-methylpiperazin-1-yl)-5-oxo-1,3,4,5-tetrahydro-2H-chromeno[3,4-c]pyridine-3-carbonyl)benzamide] | 100 to 1000 | G (^ 3 to 9.0) | > 5000
COC[C@H]1CN(c2ccc3c4c(c(=O)oc3c2C)CN(C(=O)c2cc(F)c(C(=O)NS(=O)(=O)C3(C)CC3)c(N3CC5CC5C3)c2)CC4)CCN1C (stereo partly drawn) [Example 26, 2-(3-azabicyclo[3.1.0]hexan-3-yl)-6-fluoro-4-(8-((R)-3-(methoxymethyl)-4-methylpiperazin-1-yl)-7-methyl-5-oxo-1,3,4,5-tetrahydro-2H-chromeno[3,4-c]pyridine-3-carbonyl)-N-((1-methylcyclopropyl)sulfonyl)benzamide] | 1 to 10 | F (<3) | 1 to 10
COC[C@H]1CN(c2cc(C)c3c4c(c(=O)oc3c2C)CN(C(=O)c2cc(OC3CCC3)c(C(=O)NS(=O)(=O)N(C)C)cc2F)CC4)CCN1C [Example 93, (R)-2-cyclobutoxy-N-(N,N-dimethylsulfamoyl)-5-fluoro-4-(8-(3-(methoxymethyl)-4-methylpiperazin-1-yl)-7,10-dimethyl-5-oxo-1,3,4,5-tetrahydro-2H-chromeno[3,4-c]pyridine-3-carbonyl)benzamide] | 10 to 100 | G (^ 3 to 9.0) | 10 to 100
COC[C@H]1CN(c2cc(C)c3c4c(c(=O)oc3c2)CN(C(=O)c2ccc(C(=O)NS(=O)(=O)N3CCCC3)c(OC3CCC3)c2F)CC4)CCN1C [Example 186, (R)-2-cyclobutoxy-3-fluoro-4-(8-(3-(methoxymethyl)-4-methylpiperazin-1-yl)-10-methyl-5-oxo-1,3,4,5-tetrahydro-2H-chromeno[3,4-c]pyridine-3-carbonyl)-N-(pyrrolidin-1-ylsulfonyl)benzamide] | 100 to 1000 | F (<3) | 100 to 1000
COC[C@H]1CN(c2ccc3c4c(c(=O)oc3c2C)CN(C(=O)c2ccc(C(=O)NS(=O)(=O)N(C)C(C)C)c(OC3CCC3)c2F)CC4)CCN1C [Example 56, (R)-2-cyclobutoxy-3-fluoro-N-(N-isopropyl-N-methylsulfamoyl)-4-(8-(3-(methoxymethyl)-4-methylpiperazin-1-yl)-7-methyl-5-oxo-1,3,4,5-tetrahydro-2H-chromeno[3,4-c]pyridine-3-carbonyl)benzamide] | 1 to 10 | F (<3) | 1 to 10
COC[C@H]1CN(c2cc(C)c3c4c(c(=O)oc3c2C)CN(C(=O)c2ccc(C(=O)NS(=O)(=O)N3C5CCC3COC5)c(OC)c2F)CC4)CCN1C [Example 158, N-((3-oxa-8-azabicyclo[3.2.1]octan-8-yl)sulfonyl)-3-fluoro-2-methoxy-4-(8-((R)-3-(methoxymethyl)-4-methylpiperazin-1-yl)-7,10-dimethyl-5-oxo-1,3,4,5-tetrahydro-2H-chromeno[3,4-c]pyridine-3-carbonyl)benzamide] | 10 to 100 | H (>9.0 to 30) | 100 to 1000
COC[C@H]1CN(c2cc(C)c3c4c(c(=O)oc3c2C)CN(C(=O)c2ccc(C(=O)NS(=O)(=O)C3(C)CC3)c(OC3CCC3)c2F)CC4)CCN1C [Example 41, (R)-2-cyclobutoxy-3-fluoro-4-(8-(3-(methoxymethyl)-4-methylpiperazin-1-yl)-7,10-dimethyl-5-oxo-1,3,4,5-tetrahydro-2H-chromeno[3,4-c]pyridine-3-carbonyl)-N-((1-methylcyclopropyl)sulfonyl)benzamide] | 1 to 10 | G (^ 3 to 9.0) | 1 to 10

Further lines, results first:

IC50 [1] [nM] | MTHFD1/MTHFD2 IC50 ratio [1] | IC50 [2] [nM] | SMILES
100 to 1000 | J (>30) | 1000 to 5000 | COC[C@H]1CN(c2cc(C)c3c4c(c(=O)oc3c2C)CN(C(=O)c2ccc(C(=O)NS(=O)(=O)N3CCCC3)cc2Cl)CC4)CCN1C [Example 184, (R)-3-chloro-4-(8-(3-(methoxymethyl)-4-methylpiperazin-1-yl)-7,10-dimethyl-5-oxo-1,3,4,5-tetrahydro-2H-chromeno[3,4-c]pyridine-3-carbonyl)-N-(pyrrolidin-1-ylsulfonyl)benzamide]
10 to 100 | F (<3) | 10 to 100 | COC[C@H]1CN(c2ccc3c4c(c(=O)oc3c2Cl)CN(C(=O)c2ccc(C(=O)NS(=O)(=O)N(C)C(C)C)c(OC3CCCC3)c2F)CC4)CCN1C [Example 29, (R)-4-(7-chloro-8-(3-(methoxymethyl)-4-methylpiperazin-1-yl)-5-oxo-1,3,4,5-tetrahydro-2H-chromeno[3,4-c]pyridine-3-carbonyl)-2-(cyclopentyloxy)-3-fluoro-N-(N-isopropyl-N-methylsulfamoyl)benzamide]
1 to 10 | F (<3) | 1 to 10 | COC[C@H]1CN(c2cc(C)c3c4c(c(=O)oc3c2C)CN(C(=O)c2ccc(C(=O)NS(=O)(=O)N3CCCC3)c(O[C@@H]3C[C@@H]5C[C@@H]5C3)c2F)CC4)CCN1C [Example 35, 2-(((1R,3r,5S)-bicyclo[3.1.0]hexan-3-yl)oxy)-3-fluoro-4-(8-((R)-3-(methoxymethyl)-4-methylpiperazin-1-yl)-7,10-dimethyl-5-oxo-1,3,4,5-tetrahydro-2H-chromeno[3,4-c]pyridine-3-carbonyl)-N-(pyrrolidin-1-ylsulfonyl)benzamide]
10 to 100 | G (^ 3 to 9.0) | 100 to 1000 | CCOc1cc(C(=O)N2CCc3c(c(=O)oc4c(C)c(N5CCN(C)[C@@H](COC)C5)cc(Cl)c34)C2)c(F)cc1C(=O)NS(=O)(=O)N(C)C1CC1 [Example 298, (R)-4-(10-chloro-8-(3-(methoxymethyl)-4-methylpiperazin-1-yl)-7-methyl-5-oxo-1,3,4,5-tetrahydro-2H-chromeno[3,4-c]pyridine-3-carbonyl)-N-(N-cyclopropyl-N-methylsulfamoyl)-2-ethoxy-5-fluorobenzamide]
1 to 10 | J (>30) | 10 to 100 | CCOc1cc(C(=O)N2CCc3c(c(=O)oc4c(C)c(N5CCN(C)[C@@H](COC)C5)cc(C)c34)C2)c(F)cc1C(=O)NS(=O)(=O)N(C)C1CC1 [Example 269, (R)-N-(N-cyclopropyl-N-methylsulfamoyl)-2-ethoxy-5-fluoro-4-(8-(3-(methoxymethyl)-4-methylpiperazin-1-yl)-7,10-dimethyl-5-oxo-1,3,4,5-tetrahydro-2H-chromeno[3,4-c]pyridine-3-carbonyl)benzamide]
100 to 1000 | H (>9.0 to 30) | > 5000 | COC[C@H]1CN(c2cc(C)c3c4c(c(=O)oc3c2C)CN(C(=O)c2cc(N(C)C)c(C(=O)NS(=O)(=O)N3CCCC3)cc2C(F)(F)F)CC4)CCN1C [Example 152, (R)-2-(dimethylamino)-4-(8-(3-(methoxymethyl)-4-methylpiperazin-1-yl)-7,10-dimethyl-5-oxo-1,3,4,5-tetrahydro-2H-chromeno[3,4-c]pyridine-3-carbonyl)-N-(pyrrolidin-1-ylsulfonyl)-5-(trifluoromethyl)benzamide]
10 to 100 | F (<3) | 10 to 100 | COC[C@H]1CN(c2cc(C)c3c4c(c(=O)oc3c2C)CN(C(=O)c2ccc(C(=O)NS(=O)(=O)C3(C)CC3)c(OC3CCC(F)(F)CC3)c2F)CC4)CCN1C [Example 86, (R)-2-((4,4-difluorocyclohexyl)oxy)-3-fluoro-4-(8-(3-(methoxymethyl)-4-methylpiperazin-1-yl)-7,10-dimethyl-5-oxo-1,3,4,5-tetrahydro-2H-chromeno[3,4-c]pyridine-3-carbonyl)-N-((1-methylcyclopropyl)sulfonyl)benzamide]
10 to 100 | H (>9.0 to 30) | 100 to 1000 | COC[C@H]1CN(c2cc(Cl)c3c4c(c(=O)oc3c2C)CN(C(=O)c2cc(N(C)C)c(C(=O)NS(=O)(=O)N3CCCC5(COC5)C3)cc2F)CC4)CCN1C [Example 272, (R)-N-((2-oxa-6-azaspiro[3.5]nonan-6-yl)sulfonyl)-4-(10-chloro-8-(3-(methoxymethyl)-4-methylpiperazin-1-yl)-7-methyl-5-oxo-1,3,4,5-tetrahydro-2H-chromeno[3,4-c]pyridine-3-carbonyl)-2-(dimethylamino)-5-fluorobenzamide]
1 to 10 | – | 10 to 100 | COC[C@H]1CN(c2cc(C)c3c4c(c(=O)oc3c2C)CN(C(=O)c2ccc(C(=O)NS(=O)(=O)C3(C)CC3)c(N3CCCC(F)(F)C3)c2F)CC4)CCN1C [Example 76, (R)-2-(3,3-difluoropiperidin-1-yl)-3-fluoro-4-(8-(3-(methoxymethyl)-4-methylpiperazin-1-yl)-7,10-dimethyl-5-oxo-1,3,4,5-tetrahydro-2H-chromeno[3,4-c]pyridine-3-carbonyl)-N-((1-methylcyclopropyl)sulfonyl)benzamide]
